Literature values as cited in patent US20070178049A1, “Systems and methods for the delivery of corticosteroids having an enhanced pharmacokinetic profile” (Verus Pharmaceuticals, Inc., priority 2005, published 2007).

SMILES: CCCC1O[C@@H]2C[C@H]3[C@@H]4CCC5=CC(=O)C=C[C@]5(C)[C@H]4[C@@H](O)C[C@]3(C)[C@]2(C(=O)CO)O1 (stereo partly drawn) [budesonide, (R, S)-11β,16α,17,21-tetrahydroxypregna-1,4-diene-3,20-dione cyclic 16,17-acetal with butyraldehyde]
- solubility in alcohols (alcohols): readily soluble
- solubility in water (water): virtually insoluble
